The values that follow come from patent US7084253B2, “Protease-activated receptor PAR4 (ZCHEMR2)” (ZymoGenetics, Inc., priority 1998, dated 2006).

Substitutions are numbered along the chain they refer to. “Also recorded” adds a separate entry of the source. Like-named read-outs stand apart in the source and are kept apart here. No end group written: not given here.

The target of one test is T1, PAR4 (Homo sapiens, UniProt Q96RI0, A120T).
T1 construct: expressed in transfected cells; host or cells: COS-7
T1 sequence (Q96RI0 18-385 A120T): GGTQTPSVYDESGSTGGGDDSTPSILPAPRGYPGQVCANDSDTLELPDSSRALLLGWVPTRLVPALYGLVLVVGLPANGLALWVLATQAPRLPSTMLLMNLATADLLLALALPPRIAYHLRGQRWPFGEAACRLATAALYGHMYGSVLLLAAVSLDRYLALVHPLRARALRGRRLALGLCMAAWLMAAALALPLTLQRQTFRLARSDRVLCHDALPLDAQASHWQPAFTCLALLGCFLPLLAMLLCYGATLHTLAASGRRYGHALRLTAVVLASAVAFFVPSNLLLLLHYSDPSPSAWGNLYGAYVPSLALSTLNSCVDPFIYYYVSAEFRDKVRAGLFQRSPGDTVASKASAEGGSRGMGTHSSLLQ
Kind of test: phosphoinositide hydrolysis assay in COS cells transiently transfected with PAR4 cDNA. The conditions noted are these: for activity against PAR4 (other proteases): concentration not given; for response of PAR4-transfected COS cells (phosphatidylinositol 4,5 diphosphate hydrolysis): protease at 100 nM. It is filed as cell-based. As to the method: (§1) COS cells were transiently transfected with PAR4 cDNA, and examined for responses to thrombin and trypsin. Briefly, for the phosphoinositide hydrolysis assay, COS-7 cells were grown in Dulbecco's modified Eagle's medium (DMEM; Gibco/BRL, Gaithersburg, Md.) with 10% fetal bovine serum (FBS). Cells were plated at 3.5×10^5/35-mm plate one day before transfection. Two μg of DNA were transfected using 12 μl of lipofectAMINE (Gibco/BRL) for 5 h. The cells were incubated overnight in DMEM with 10% FBS, and then split into triplicate 35-mm wells. Forty-eight hours after transfection, the cells were loaded with 2 μCi/ml [^3H]myo-inositol (Amersham, Arlington Heights, Ill.) in serum-free DMEM and incubated overnight at 37° C. Cells were washed and treated with 20 mM LiCl in DMEM, with or without protease or peptide activators added at various concentrations. Cells were then incubated for 2 h at 37° C. and extracted with 750 μl of 20 mM formic acid for 30 min on ice. The inositol mono-, bis-, and trisphosphates were purified through a one ml AG 1-X8 anion-exchange resin (Bio-Rad, Hercules, Calif.) (T. Nanevicz et al., J. Biol. Chem. 271:702–06, 1996), and quantitated by scintillation counting. In each hydrolysis assay, surface expression levels of receptors were determined in triplicate in parallel cultures.

For another test, the target named is T2, PAR4 (R47A) (Homo sapiens, UniProt Q96RI0, A120T/R47A).
T2 construct: expressed in transfected cells; host or cells: COS cells
T2 sequence (Q96RI0 18-385 R47A/A120T): T1 sequence (Q96RI0 18-385 A120T) with R30A
Put plainly: phosphoinositide hydrolysis in COS cells expressing cleavage site mutant PAR4 (R47A). It is filed as cell-based. The note with it: Ala for Arg at residue 47. As for the experimental part:
as §1, with “cultures. […]” for “cultures.”

The target of the next test is T3, PAR4 (R68A) (Homo sapiens, UniProt Q96RI0, A120T/R68A).
T3 construct: expressed in transfected cells; host or cells: COS cells (inferred from the R47A sentence of the same paragraph)
T3 sequence (Q96RI0 18-385 R68A/A120T): T1 sequence (Q96RI0 18-385 A120T) with R51A
Put plainly: phosphatidylinositol 4,5 diphosphate hydrolysis assay in COS cells expressing PAR4 mutant R68A. Type of test: cell-based. The note with it: Arg 68 to Ala, extracellular amino-terminal region. As to the method:
as §1, with “cultures. […]” for “cultures.”

The next test concerns the target T4, PAR1 (Homo sapiens, UniProt P25116).
T4 construct: expressed in transfected cells; COS-7 inferred from the assay of b141
T4 sequence (P25116 22-425): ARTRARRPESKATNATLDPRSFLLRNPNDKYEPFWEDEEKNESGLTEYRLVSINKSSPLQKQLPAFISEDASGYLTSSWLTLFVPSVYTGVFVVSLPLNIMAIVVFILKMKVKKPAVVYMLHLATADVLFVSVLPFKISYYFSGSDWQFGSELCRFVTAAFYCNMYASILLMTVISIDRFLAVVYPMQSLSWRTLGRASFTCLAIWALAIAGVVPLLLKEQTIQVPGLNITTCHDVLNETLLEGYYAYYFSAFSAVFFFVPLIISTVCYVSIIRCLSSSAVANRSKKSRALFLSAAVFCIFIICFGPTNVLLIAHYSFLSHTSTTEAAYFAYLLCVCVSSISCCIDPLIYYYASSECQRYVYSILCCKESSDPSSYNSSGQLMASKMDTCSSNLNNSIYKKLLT
Kind of test: thrombin-stimulated phosphoinositide hydrolysis, PAR1 (comparison). Type of test: cell-based. The conditions noted are these: comparison with PAR4; read-out: half-maximal concentration (EC50) for PAR1. As to the method:
For comparative purposes, PAR1 protein was prepared. Briefly, the cDNA coding for PAR1 was isolated from a placental cDNA library by PCR. The PAR1 DNA sequence obtained was essentially identical to that previously reported, except for nucleotides 711–712 (CG→GC) and nucleotides 1091–1092 (CG→GC). […] These amino acid changes were confirmed by sequence analysis of the corresponding regions in the genomic DNA coding for PAR1.
as §1, with “Forty-eight hours after transfection, the cells were loaded with 2 μCi/ml [^3H]myo-inositol (Amersham, Arlington Heights, Ill.) in serum-free DMEM and incubated overnight at 37° C. Cells were washed and treated with 20 mM LiCl in DMEM, with or without protease or peptide activators added at various concentrations. Cells were then incubated for 2 h at 37° C. and extracted with 750 μl of 20 mM formic acid for 30 min on ice.” left out

Another test concerns the target T5, PAR3 (Homo sapiens, UniProt O00254).
T5 sequence (O00254 22-374): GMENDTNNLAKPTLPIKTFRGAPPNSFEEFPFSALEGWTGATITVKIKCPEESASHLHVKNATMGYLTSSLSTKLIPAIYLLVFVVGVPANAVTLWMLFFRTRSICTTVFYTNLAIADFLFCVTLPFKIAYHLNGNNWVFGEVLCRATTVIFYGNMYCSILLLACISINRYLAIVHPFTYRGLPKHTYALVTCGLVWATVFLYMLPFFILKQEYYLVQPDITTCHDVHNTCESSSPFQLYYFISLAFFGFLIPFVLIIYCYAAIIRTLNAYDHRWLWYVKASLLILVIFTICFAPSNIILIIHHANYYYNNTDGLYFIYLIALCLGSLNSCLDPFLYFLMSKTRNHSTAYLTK
The conditions noted are these: comparison with PAR4; read-out: half-maximal concentration (EC50) for PAR3; cited from earlier work.

The mark [1] stands for this setting: PAR4-transfected COS cells, read-out: half-maximal concentration (EC50), phosphoinositide hydrolysis with PAR4.

For the molecule Chymotrypsin, the “activity against PAR4 (other proteases)” value on PAR4 is listed as “failed to activate”.
Regarding “trypsin: serine protease, activator of PAR4”, the EC50 with PAR4 (setting [1]) is 5 nM. For the same molecule, in the test with PAR4, the “response of PAR4-transfected COS cells (phosphatidylinositol 4,5 diphosphate hydrolysis)” value is on record as “did respond”. The “response of putative cleavage site mutant PAR4 (R47A) to protease” value in the test with PAR4 (R47A) is on record as “failed to respond; also recorded: only activate the wild-type PAR4”. Besides, in the test with PAR4 (R68A), the “effect of R68A mutation on PAR4 activation by protease” value is reported as “no effect”.
With urokinase, at PAR4, the “activity against PAR4 (other proteases)” value is “little or no activity”.
As for elastase, the “activity against PAR4 (other proteases)” value on PAR4 is “failed to activate”.
For thrombin, the EC50 on PAR4 (setting [1]) is 5 nM; at PAR1, around 0.2 nM; on PAR3, around 0.2 nM. The “response of PAR4-transfected COS cells (phosphatidylinositol 4,5 diphosphate hydrolysis)” value on PAR4 is on record as “did respond”. Also, the “response of putative cleavage site mutant PAR4 (R47A) to protease” value on PAR4 (R47A) is “failed to respond; also recorded: only activate the wild-type PAR4”. Also, the “effect of R68A mutation on PAR4 activation by protease” value on PAR4 (R68A) is given as “no effect”.
On to SFLLRN [reference compound], for which, at PAR4 (concentration effective for PAR1 activation), the “activity toward PAR4 of PAR1 activating peptide” value is reported as “no activity”.
In turn, GYPGQV [GYPGQV] showed an EC50 on PAR4 of around 100000 nM.

B1: plasmin: arginine/lysine-specific serine protease (protein, UniProt P00747 20-580; P00747 581-810, looked up)
Plasmin heavy chain A: EPLDDYVNTQGASLFSVTKKQLGAGSIEECAAKCEEDEEFTCRAFQYHSKEQQCVIMAENRKSSIIIRMRDVVLFEKKVYLSECKTGNGKNYRGTMSKTKNGITCQKWSSTSPHRPRFSPATHPSEGLEENYCRNPDNDPQGPWCYTTDPEKRYDYCDILECEEECMHCSGENYDGKISKTMSGLECQAWDSQSPHAHGYIPSKFPNKNLKKNYCRNPDRELRPWCFTTDPNKRWELCDIPRCTTPPPSSGPTYQCLKGTGENYRGNVAVTVSGHTCQHWSAQTPHTHNRTPENFPCKNLDENYCRNPDGKRAPWCHTTNSQVRWEYCKIPSCDSSPVSTEQLAPTAPPELTPVVQDCYHGDGQSYRGTSSTTTTGKKCQSWSSMTPHRHQKTPENYPNAGLTMNYCRNPDADKGPWCFTTDPSVRWEYCNLKKCSGTEASVVAPPPVVLLPDVETPSEEDCMFGNGKGYRGKRATTVTGTPCQDWAAQEPHRHSIFTPETNPRAGLEKNYCRNPDGDVGGPWCYTTNPRKLYDYCDVPQCAAPSFDCGKPQVEPKKCPGR
Plasmin light chain B: VVGGCVAHPHSWPWQVSLRTRFGMHFCGGTLISPEWVLTAAHCLEKSPRPSSYKVILGAHQEVNLEPHVQEIEVSRLFLEPTRKDIALLKLSSPAVITDKVIPACLPSPNYVVADRTECFITGWGETQGTFGAGLLKEAQLPVIENKVCNRYEFLNGRVQSTELCAGHLAGGTDSCQGDSGGPLVCFEKDKYILQGVTSWGLGCARPNKPGVYVRVSRFVTWIEGVMRNN
modifications: Plasmin
notes: arginine/lysine-specific serine protease
For the molecule B1, the “activity against PAR4 (other proteases)” value with PAR4 is on record as “little or no activity”.
